Reference: patent US20030055070A1, “Phosphodiesterase type 5 (PDE5) inhibitors for the treatment of selective serotonin reuptake inhibitor (SSR) induced sexual dysfunction” (priority 1999, published 2003)

Legend:
[1] = tested on: men with ED taking concomitant SSRIs; test: Retrospective subanalysis of 10 double-blind, placebo-controlled sildenafil citrate studies, IIEF questionnaire; patients taking concomitant SSRIs; type: in vivo, human
Method: (§1) A retrospective analysis of combined data from 10 Phase II/III double-blind, placebo-controlled, fixed- and flexible-dose trials identified a subgroup of men with ED who were receiving 5-200 mg of sildenafil citrate (S) or placebo (P) and taking concomitant SSRIs. Studies of sildenafil citrate in various populations have been reported. For example, Goldstein et al. report the results of two sildenafil citrate studies in men. In one study 532 men were treated with oral sildenafil citrate (25, 50 or 100 mg) or placebo over 24 weeks to study dose-response. In the second study 329 men were treated with sildenafil citrate or placebo with dose escalation to 100 mg based on efficacy and tolerance. Additional studies may be found in the following references: Derry et al. (1998), Dinsmore et al. (1999), Goldstein et al. (1998), Padma-Nathan et al. (1998) and Rendell et al. (1999). Analysis of efficacy (ANCOVA) included responses to several questions including question 9 (Q9; frequency of ejaculation) and question 10 (Q10; frequency of orgasm) of the International Index of Erectile Function. In the International Index of Erectile Function, sexual activity includes intercourse, caressing, foreplay and masturbation; sexual intercourse is defined as vaginal penetration of a partner by the respondent; sexual stimulation includes situations like foreplay with a partner, looking at erotic pictures, etc.; ejaculation: the ejection of semen from the penis (or the feeling of this). Question 9 is, “Over the past 4 weeks, when you had sexual stimulation or intercourse how often did you ejaculate?” Question 10 is, “Over the past 4 weeks, when you had sexual stimulation or intercourse how often did you have the feeling of orgasm (with or without ejaculation)? Scores are based on a scale from 1 (almost never or never) to 5 (almost always or always), with 0 representing “No sexual stimulation/intercourse.” Each question was scored from 0 to 5, with lower scores indicating greater sexual dysfunction. Results are expressed as mean baseline score's standard error of mean, (±SEM) and mean change from baseline (±SEM) at the end of treatment (6 to 24 weeks).
(§2) This was a retrospective subanalysis of combined data from 10 double-blind, placebo-controlled, fixed- and flexible-dose studies with sildenafil citrate for the treatment of ED. The subanalysis was conducted to assess whether treatment with sildenafil citrate can alleviate symptoms of sexual dysfunction in men taking SSRIs. The studies lasted for 6 to 24 weeks and dosing of the study drug ranged from 5 mg to 200 mg of sildenafil citrate or matching placebo. Patients were instructed to take medication approximately 1 hour before anticipated sexual activity but not more than once daily.
(§3) A total of 3414 patients were randomized to treatment. The main inclusion criteria were as follows: Men aged 18 years and older; Clinical diagnosis of ED of more than 6 months' duration; Stable relationship with a female partner for at least 6 months prior to the study; and written informed consent. The main exclusion criteria were as follows: Penile anatomical deformities; Major illness or uncontrolled psychiatric disorder; Concomitant treatment with nitrates or nitric oxide donors, estrogens, androgens, or anticoagulants. Other treatments for sexual dysfunction were not allowed during the study.
Efficacy was assessed at the end of treatment (6 to 24 weeks) by responses to the validated 15-item International Index of Erectile Function (IIEF) questionnaire. Rosen et al. (1997) “The International Index of Erectile Function (IIEF): a Multidimensional Scale for Assessment of Erectile Dysfunction,” Urology 49:822-830. Responses were graded on a scale of 1 (“almost never/never”) to 5 (“almost always/always”), with a score of 0 indicating no sexual activity. Efficacy results were evaluated using analysis of covariance (ANCOVA) and were expressed as mean scores. […]

[2] = tested on: SSRI induced sexual dysfunction; conditions: four patients (two men, two women); all reported; cited from earlier work
[3] = tested on: SSRI induced sexual dysfunction in men and women; conditions: nine men, five women; twelve on SSRIs, two on mirtazapine; all patients; cited from earlier work
[4] = tested on: SSRI-induced sexual side effects; conditions: case studies of patients taking SSRIs; cited from earlier work
[5] = tested on: men with ED; test: Retrospective subanalysis of 10 double-blind, placebo-controlled sildenafil citrate studies, IIEF questionnaire; patients without SSRIs; type: in vivo, human
Method: as §1, §2, §3
Efficacy was assessed at the end of treatment (6 to 24 weeks) by responses to the validated 15-item International Index of Erectile Function (IIEF) questionnaire. Rosen et al. (1997) “The International Index of Erectile Function (IIEF): a Multidimensional Scale for Assessment of Erectile Dysfunction,” Urology 49:822-830. Responses were graded on a scale of 1 (“almost never/never”) to 5 (“almost always/always”), with a score of 0 indicating no sexual activity. Efficacy results were evaluated using analysis of covariance (ANCOVA) and were expressed as mean scores.

[6] = with SSRIs, 5-200 mg, end of treatment (6 to 24 weeks), scale 0-5
[7] = with SSRIs, baseline, scale 0-5
[8] = no SSRI, end of treatment (6 to 24 weeks), 5-200 mg, scale 0-5
[9] = no SSRI, p<0.0001 versus placebo
[10] = without SSRIs, 5-200 mg, end of treatment (6 to 24 weeks), scale 0-5
[11] = without SSRIs, baseline, scale 0-5

Structure (SMILES): CCCc1nn(C)c2c(=O)[nH]c(-c3cc(S(=O)(=O)N4CCN(C)CC4)ccc3OCC)nc12.O=C(O)CC(O)(CC(=O)O)C(=O)O [Sildenafil citrate, 1-[[3-(6,7-dihydro-1-methyl-7-oxo-3-propyl-1H-pyrazolo[4,3-d]pyrimidin-5-yl)-4-ethoxyphenyl]sulfonyl]-4-methylpiperazine citrate]
- Frequency of orgasm (Question 10), effect versus placebo, in words ([1]; concomitant SSRI, p<0.01 versus placebo, citrate): significantly improved
- Frequency of ejaculation (Question 9), effect versus placebo, in words ([1]; concomitant SSRI, p<0.02 versus placebo, citrate): significantly improved
- Important aspects of sexual function, in words ([1]; patients with ED with concomitant SSRI): significantly improved
- IIEF Q9 frequency of ejaculation, mean change from baseline ± SEM [1, 6]: 1.16 ± 0.25
- IIEF Q10 frequency of orgasm, mean change from baseline ± SEM [1, 6]: 1.34 ± 0.27
- IIEF Q9 frequency of ejaculation, mean baseline score ± SEM [1, 7]: 2.42 ± 0.23
- IIEF Q10 frequency of orgasm, mean baseline score ± SEM [1, 7]: 2.24 ± 0.22
- Effect on SSRI induced sexual dysfunction, in words [2]: rapid reversal of SSRI induced sexual dysfunction
- Sexual functioning, in words [3]: statistically significant improvement
- Response to treatment, in words [4]: responding well
- Improvement of score, erection confidence (Question 15) ([5]; no SSRI, baseline to endpoint): 76%
- Improvement of score, erection firmness (Question 2) ([5]; no SSRI, baseline to endpoint): 78%
- Improvement of score, erection frequency (Question 1) ([5]; no SSRI, baseline to endpoint): 60%
- Improvement of score, maintenance ability (Question 5) ([5]; no SSRI, baseline to endpoint): 117%
- Increase of mean score, intercourse enjoyment (Question 8) ([5]; no SSRI, baseline to endpoint): 70%
- Increase of mean score, intercourse frequency (Question 6) ([5]; no SSRI, baseline to endpoint): 57%
- Increase of mean score, intercourse satisfaction (Question 7) ([5]; no SSRI, baseline to endpoint): 93%
- Increase of mean score, overall satisfaction with sex life (Question 13) ([5]; no SSRI, baseline to endpoint): 68%
- Increase of mean score, satisfaction with the relationship (Question 14) ([5]; no SSRI, baseline to endpoint): 40%
- IIEF Question 1 erection frequency, baseline mean score ([5]; no SSRI, baseline, scale 0-5): 2.27 ± 0.04
- IIEF Question 2 erection firmness, baseline mean score ([5]; no SSRI, baseline, scale 0-5): 1.97 ± 0.03
- IIEF Question 5 maintenance ability, baseline mean score ([5]; no SSRI, baseline, scale 0-5): 1.54 ± 0.03
- IIEF Question 6 intercourse frequency, baseline mean score ([5]; no SSRI, baseline, scale 0-5): 2.00 ± 0.03
- IIEF Question 7 intercourse satisfaction, baseline mean score ([5]; no SSRI, baseline, scale 0-5): 1.75 ± 0.03
- IIEF Question 8 intercourse enjoyment, baseline mean score ([5]; no SSRI, baseline, scale 0-5): 1.86 ± 0.03
- IIEF Question 13 overall satisfaction, baseline mean score ([5]; no SSRI, baseline, scale 0-5): 2.00 ± 0.02
- IIEF Question 14 relationship satisfaction, baseline mean score ([5]; no SSRI, baseline, scale 0-5): 2.63 ± 0.03
- IIEF Question 15 erection confidence, baseline mean score ([5]; no SSRI, baseline, scale 0-5): 1.76 ± 0.02
- Increase of mean score from mean baseline score, ability to achieve an erection (Question 3) ([5]; no SSRI, end of treatment): 80%
- Increase of mean score from mean baseline score, ability to maintain an erection (Question 4) ([5]; no SSRI, end of treatment): 107%
- IIEF Question 1 erection frequency, endpoint mean score [5, 8]: 3.63 ± 0.04
- IIEF Question 2 erection firmness, endpoint mean score [5, 8]: 3.50 ± 0.04
- IIEF Question 5 maintenance ability, endpoint mean score [5, 8]: 3.35 ± 0.04
- IIEF Question 6 intercourse frequency, endpoint mean score [5, 8]: 3.13 ± 0.03
- IIEF Question 7 intercourse satisfaction, endpoint mean score [5, 8]: 3.38 ± 0.04
- IIEF Question 8 intercourse enjoyment, endpoint mean score [5, 8]: 3.16 ± 0.03
- IIEF Question 13 overall satisfaction, endpoint mean score [5, 8]: 3.36 ± 0.03
- IIEF Question 14 relationship satisfaction, endpoint mean score [5, 8]: 3.68 ± 0.03
- IIEF Question 15 erection confidence, endpoint mean score [5, 8]: 3.10 ± 0.03
- Frequency of ejaculation (Question 9), mean score versus placebo, in words [5, 9]: increased significantly
- Frequency of orgasm (Question 10), mean score versus placebo, in words [5, 9]: increased significantly
- Important aspects of sexual function, in words ([5]; patients with ED without concomitant SSRI): significantly improved
- IIEF Q9 frequency of ejaculation, mean change from baseline ± SEM [5, 10]: 0.90 ± 0.04
- IIEF Q10 frequency of orgasm, mean change from baseline ± SEM [5, 10]: 0.93 ± 0.04
- IIEF Q9 frequency of ejaculation, mean baseline score ± SEM [5, 11]: 2.74 ± 0.04
- IIEF Q10 frequency of orgasm, mean baseline score ± SEM [5, 11]: 2.65 ± 0.04
